Laboratory results: US8124637B2, “Anthra [1, 2-d]imidazole-6,11-dione derivatives, preparation method and application thereof” (National Defense Medical Center, priority 2010, dated 2012)

Legend:
[1] = test system: hTERT promoter (PhTERT) expression; assay: SEAP assay (PhTERT-SEAP reporter, H1299); format: cell-based, human; conditions: Homo sapiens, NCI-H1299, PhTERT-SEAP (H1299); for activity at 1 µM: read-out: Relative SEAP activity (%); for activity at 10 µM / activity at 100 µM: read-out: Relative SEAP activity (%) (converted)
Summary of the method: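 Stable H1299 clones carrying the hTERT promoter (−3338 to +1) driving SEAP were treated with varying drug amounts for 24 h at 37° C. Heat-treated media (65° C, 10 min) were assayed with 12 mM p-nitrophenyl phosphate in diethanolamine buffer; rate of A405 increase gave SEAP activity.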

786-0 = assay: NCI 60-cell drug screen, one dose; format: cell-based, human; conditions: Renal Cancer 786-0, 1.00E−5 Molar
Protocol: (§1) In brief, cellular protein levels were determined after 48 hours of drug exposure by sulforhodamine B colorimetry.
(§2) The screening system in United State National Cancer Institute (NCI) consists of 60 kinds of different human cancer cells, which can be used to assay the growth-inhibiting ability or cell toxicity of a compound against various cancer and tumor at a certain concentration. The NCI had selected 6 compounds synthesized above, and performed cell toxicity assay against 60 kinds of cancer cell strains (Table 2) (DTP Human Tumor Cell Line Screen), in which each compound was assayed at a certain concentration to observe its inhibition ability or cell toxicity against various kinds of cancer and tumor.

ACHN = assay: NCI 60-cell drug screen, one dose; format: cell-based, human; conditions: Renal Cancer ACHN, 1.00E−5 Molar
Protocol: as §1, §2

BT-549 = assay: NCI 60-cell drug screen, one dose; format: cell-based, human; conditions: Breast Cancer BT-549, 1.00E−5 Molar
Protocol: as §1, §2

COLO 205 = assay: NCI 60-cell drug screen, one dose; format: cell-based, human; conditions: Colon Cancer COLO 205, 1.00E−5 Molar
Protocol: as §1, §2

EKVX = assay: NCI 60-cell drug screen, one dose; format: cell-based, human; conditions: Non-Small Cell Lung Cancer EKVX, 1.00E−5 Molar
Protocol: as §1, §2

HOP-62 = assay: NCI 60-cell drug screen, one dose; format: cell-based, human; conditions: Non-Small Cell Lung Cancer HOP-62, 1.00E−5 Molar
Protocol: as §1, §2

HOP-92 = assay: NCI 60-cell drug screen, one dose; format: cell-based, human; conditions: Non-Small Cell Lung Cancer HOP-92, 1.00E−5 Molar
Protocol: as §1, §2

HS 578-T = assay: NCI 60-cell drug screen, one dose; format: cell-based, human; conditions: Breast Cancer HS 578-T, 1.00E−5 Molar
Protocol: as §1, §2

HT29 = assay: NCI 60-cell drug screen, one dose; format: cell-based, human; conditions: Colon Cancer HT29, 1.00E−5 Molar
Protocol: as §1, §2

KM12 = assay: NCI 60-cell drug screen, one dose; format: cell-based, human; conditions: Colon Cancer KM12, 1.00E−5 Molar
Protocol: as §1, §2

LOX IMVI = assay: NCI 60-cell drug screen, one dose; format: cell-based, human; conditions: Melanoma LOX IMVI, 1.00E−5 Molar
Protocol: as §1, §2

M14 = assay: NCI 60-cell drug screen, one dose; format: cell-based, human; conditions: Melanoma M14, 1.00E−5 Molar
Protocol: as §1, §2

MCF7 = assay: NCI 60-cell drug screen, one dose; format: cell-based, human; conditions: Breast Cancer MCF7, 1.00E−5 Molar
Protocol: as §1, §2

MDA-MB-435 = assay: NCI 60-cell drug screen, one dose; format: cell-based, human; conditions: Melanoma MDA-MB-435, 1.00E−5 Molar
Protocol: as §1, §2

NCI-H23 = assay: NCI 60-cell drug screen, one dose; format: cell-based, human; conditions: Non-Small Cell Lung Cancer NCI-H23, 1.00E−5 Molar
Protocol: as §1, §2

NCI-H322M = assay: NCI 60-cell drug screen, one dose; format: cell-based, human; conditions: Non-Small Cell Lung Cancer NCI-H322M, 1.00E−5 Molar
Protocol: as §1, §2

NCI-H460 = assay: NCI 60-cell drug screen, one dose; format: cell-based, human; conditions: Non-Small Cell Lung Cancer NCI-H460, 1.00E−5 Molar
Protocol: as §1, §2

NCI-H522 = assay: NCI 60-cell drug screen, one dose; format: cell-based, human; conditions: Non-Small Cell Lung Cancer NCI-H522, 1.00E−5 Molar
Protocol: as §1, §2

OVCAR-5 = assay: NCI 60-cell drug screen, one dose; format: cell-based, human; conditions: Ovarian Cancer OVCAR-5, 1.00E−5 Molar
Protocol: as §1, §2

SF-539 = assay: NCI 60-cell drug screen, one dose; format: cell-based, human; conditions: CNS Cancer SF-539, 1.00E−5 Molar
Protocol: as §1, §2

SK-MEL-28 = assay: NCI 60-cell drug screen, one dose; format: cell-based, human; conditions: Melanoma SK-MEL-28, 1.00E−5 Molar
Protocol: as §1, §2

SK-MEL-5 = assay: NCI 60-cell drug screen, one dose; format: cell-based, human; conditions: Melanoma SK-MEL-5, 1.00E−5 Molar
Protocol: as §1, §2

SN12C = assay: NCI 60-cell drug screen, one dose; format: cell-based, human; conditions: Renal Cancer SN12C, 1.00E−5 Molar
Protocol: as §1, §2

SNB-19 = assay: NCI 60-cell drug screen, one dose; format: cell-based, human; conditions: CNS Cancer SNB-19, 1.00E−5 Molar
Protocol: as §1, §2

SW-620 = assay: NCI 60-cell drug screen, one dose; format: cell-based, human; conditions: Colon Cancer SW-620, 1.00E−5 Molar
Protocol: as §1, §2

T-47D = assay: NCI 60-cell drug screen, one dose; format: cell-based, human; conditions: Breast Cancer T-47D, 1.00E−5 Molar
Protocol: as §1, §2

[2] = test system: 60 kinds of different human cancer cells; assay: NCI 60-cell drug screen, one dose, whole panel; format: cell-based; conditions: mean over the tested cell lines, 1.00E−5 Molar
Protocol: as §1, §2

Compound	activity at 1 µM [1]	activity at 10 µM [1]	activity at 100 µM [1]	Growth Percent (786-0)	Growth Percent (ACHN)	Growth Percent (BT-549)	Growth Percent (COLO 205)	Growth Percent (EKVX)	Growth Percent (HOP-62)	Growth Percent (HOP-92)	Growth Percent (HS 578-T)	Growth Percent (HT29)	Growth Percent (KM12)	Growth Percent (LOX IMVI)	Growth Percent (M14)	Growth Percent (MCF7)	Growth Percent (MDA-MB-435)	Growth Percent (NCI-H23)	Growth Percent (NCI-H322M)	Growth Percent (NCI-H460)	other results
CCN(CC)Cc1nc2ccc3c(c2[nH]1)C(=O)c1ccccc1C3=O [CL04, 2-((diethylamino)methyl)-1H-anthra[1,2-d]imidazole-6,11-dione]	91.2 ± 4.38%	< 50%	0.13%	64.88%	48.41%	105.50%	81.00%	73.22%	85.27%	56.11%	70.37%	56.02%	76.89%	61.98%	97.86%	51.13%	88.53%	75.96%	90.06%	55.50%	Growth Percent (NCI-H522): 73.14%; Growth Percent (OVCAR-5): 96.50%; Growth Percent (SF-539): 85.26%; Growth Percent (SK-MEL-28): 92.41%; Growth Percent (SK-MEL-5): 68.20%; Growth Percent (SN12C): 69.04%; Growth Percent (SNB-19): 75.06%; Growth Percent (SW-620): 60.46%; Growth Percent (T-47D): 83.55%; Growth Percent, Mean [2]: 69.66%
CN1CCN(Cc2nc3ccc4c(c3[nH]2)C(=O)c2ccccc2C4=O)CC1 [CL24, 2-((4-methylpiperazin-1-yl)methyl)-1H-anthra[1,2-d]imidazole-6,11-dione]	106 ± 2.94%	23.2%	6.23%	59.13%	33.08%	100.53%	53.66%	65.93%	60.84%	9.17%	51.48%	22.64%	55.51%	43.47%	97.20%	36.71%	86.53%	72.97%	82.41%	57.35%	Growth Percent (NCI-H522): 64.61%; Growth Percent (OVCAR-5): 97.72%; Growth Percent (SF-539): 63.88%; Growth Percent (SK-MEL-28): 96.38%; Growth Percent (SK-MEL-5): 77.46%; Growth Percent (SN12C): 48.50%; Growth Percent (SNB-19): 65.60%; Growth Percent (SW-620): 44.22%; Growth Percent (T-47D): 97.08%; Growth Percent, Mean [2]: 59.85%
